# Results taken from PMC10247784, “Physiological activation of human and mouse bitter taste receptors by bile acids” (Communications Biology, 2023).
# Biological target: T1, mouse Tas2r105 (Mus musculus, UniProt Q9JKT4)
# T1 construct: expressed in transfected cells; host or cells: HEK293T-Gα16gust44
# T1 sequence (Q9JKT4 1-300): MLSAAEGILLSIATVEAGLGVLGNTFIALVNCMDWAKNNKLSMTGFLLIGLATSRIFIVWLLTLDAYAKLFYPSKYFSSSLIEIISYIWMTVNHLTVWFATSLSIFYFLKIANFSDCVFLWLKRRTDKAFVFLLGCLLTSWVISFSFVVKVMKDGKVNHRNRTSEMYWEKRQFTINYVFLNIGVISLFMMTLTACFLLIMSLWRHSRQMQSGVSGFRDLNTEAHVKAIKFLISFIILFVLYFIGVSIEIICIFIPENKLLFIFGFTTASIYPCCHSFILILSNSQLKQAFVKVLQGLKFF
# Assay: Calcium imaging assay (FLIPR), HEK293T-Gα16gust44 cells transfected with mouse Tas2r105
# Type: cell-based
structure (smiles),measurement,setting,value
"C[C@H](CCC(=O)O)[C@H]1CC[C@H]2[C@@H]3CC[C@@H]4C[C@H](O)CC[C@]4(C)[C@H]3CC[C@]12C [Lithocholic Acid, lithocholic acid]",RLU,Time 0 s,0 RLU
same,RLU,Time 2 s,-19.9183 RLU
same,RLU,Time 4 s,19.2865 RLU
same,RLU,Time 6 s,-6.64 RLU
same,RLU,Time 8 s,9.805 RLU
same,RLU,Time 12 s,17.7969 RLU
same,RLU,Time 14 s,8.271 RLU
same,RLU,Time 16 s,-2.182 RLU
same,RLU,Time 18 s,5.571 RLU
same,RLU,Time 18.781 s,8.9 RLU
same,RLU,Time 20.781 s,-20.4639 RLU
same,RLU,Time 22.781 s,-20.313 RLU
same,RLU,Time 24.781 s,13.8358 RLU
same,RLU,Time 26.781 s,13.4767 RLU
same,RLU,Time 28.781 s,5.266 RLU
same,RLU,Time 30.781 s,-9.837 RLU
same,RLU,Time 32.781 s,8.574 RLU
same,RLU,Time 34.781 s,27.1912 RLU
same,RLU,Time 36.781 s,18.0239 RLU
same,RLU,Time 38.781 s,6.659 RLU
same,RLU,Time 40.781 s,53.7499 RLU
same,RLU,Time 42.781 s,49.1517 RLU
same,RLU,Time 44.781 s,47.3635 RLU
same,RLU,Time 46.781 s,50.4831 RLU
same,RLU,Time 48.781 s,74.4289 RLU
same,RLU,Time 50.781 s,93.6056 RLU
same,RLU,Time 52.781 s,63.4969 RLU
same,RLU,Time 54.781 s,82.9174 RLU
same,RLU,Time 56.781 s,91.8724 RLU
same,RLU,Time 58.781 s,82.9428 RLU
same,RLU,Time 60.781 s,110.605 RLU
same,RLU,Time 62.781 s,104.538 RLU
same,RLU,Time 64.781 s,112.529 RLU
same,RLU,Time 66.781 s,137.104 RLU
same,RLU,Time 68.781 s,132.36 RLU
same,RLU,Time 70.781 s,132.904 RLU
same,RLU,Time 72.781 s,132.041 RLU
same,RLU,Time 74.781 s,144.653 RLU
same,RLU,Time 76.781 s,172.509 RLU
same,RLU,Time 78.781 s,142.279 RLU
same,RLU,Time 80.781 s,151.243 RLU
same,RLU,Time 82.781 s,167.63 RLU
same,RLU,Time 84.781 s,195.966 RLU
same,RLU,Time 86.781 s,203.204 RLU
same,RLU,Time 88.781 s,204.712 RLU
same,RLU,Time 90.781 s,215.59 RLU
same,RLU,Time 92.781 s,209.022 RLU
same,RLU,Time 94.781 s,228.864 RLU
same,RLU,Time 96.781 s,184.288 RLU
same,RLU,Time 98.781 s,227.541 RLU
same,RLU,Time 100.781 s,248.863 RLU
same,RLU,Time 102.781 s,222.595 RLU
same,RLU,Time 104.781 s,217.502 RLU
same,RLU,Time 106.781 s,225.971 RLU
same,RLU,Time 108.781 s,244.356 RLU
same,RLU,Time 110.781 s,261.979 RLU
same,RLU,Time 112.781 s,241.216 RLU
same,RLU,Time 114.781 s,243.367 RLU
same,RLU,Time 116.781 s,246.887 RLU
same,RLU,Time 118.781 s,257.566 RLU
same,RLU,Time 120.781 s,260.092 RLU
same,RLU,Time 122.781 s,284.505 RLU
same,RLU,Time 124.781 s,270.165 RLU
same,RLU,Time 126.781 s,278.83 RLU
same,RLU,Time 128.781 s,309.382 RLU
same,RLU,Time 130.781 s,309.382 RLU
same,RLU,Time 132.781 s,310.252 RLU
same,RLU,Time 134.781 s,282.326 RLU
same,RLU,Time 136.781 s,279.582 RLU
same,RLU,Time 137.562 s,296.261 RLU
same,RLU,Time 143.562 s,310.291 RLU
same,RLU,Time 149.562 s,291.585 RLU
same,RLU,Time 155.562 s,301.792 RLU
same,RLU,Time 161.562 s,299.079 RLU
same,RLU,Time 167.562 s,303.398 RLU
same,RLU,Time 173.562 s,315.378 RLU
same,RLU,Time 179.562 s,314.187 RLU
same,RLU,Time 185.562 s,308.746 RLU
same,RLU,Time 191.562 s,287.017 RLU
same,RLU,Time 197.562 s,315.242 RLU
same,RLU,Time 203.562 s,299.639 RLU
same,RLU,Time 209.562 s,295.067 RLU
same,RLU,Time 215.562 s,316.647 RLU
same,RLU,Time 221.562 s,272.857 RLU
same,RLU,Time 227.562 s,314.132 RLU
same,RLU,Time 233.562 s,269.771 RLU
same,RLU,Time 239.562 s,270.901 RLU
same,RLU,Time 245.562 s,241.175 RLU
same,RLU,Time 293.562 s,236.399 RLU
same,RLU,Time 299.562 s,209.696 RLU
same,RLU,Time 305.562 s,212.529 RLU
same,RLU,Time 311.562 s,180.625 RLU
same,RLU,Time 317.562 s,178.726 RLU
same,RLU,Time 323.562 s,162.84 RLU
same,RLU,Time 329.562 s,185.237 RLU
same,RLU,Time 335.562 s,178.412 RLU
same,RLU,Time 341.562 s,163.583 RLU
same,RLU,Time 347.562 s,148.887 RLU
same,RLU,Time 353.562 s,153.613 RLU
same,RLU,Time 359.562 s,155.912 RLU
same,Activation threshold concentration Tas2r105,p < 0.01 vs empty vector,3 µM
"C[C@H](CCC(=O)NCCS(=O)(=O)O)[C@H]1CC[C@H]2[C@@H]3[C@H](O)C[C@@H]4C[C@H](O)CC[C@]4(C)[C@H]3C[C@H](O)[C@]12C [Taurocholic Acid, taurocholic acid]",Receptor response Tas2r105,screening,lack of taurocholic acid responsiveness
